Laboratory results reported in patent publication US12139508B2, “Steroid derivative regulators, method for preparing the same, and uses thereof” (JIANGSU HANSOH PHARMACEUTICAL GROUP CO., LTD., priority 2018, dated 2024).
Where two headings read alike, the source gives them in different places.

Legend:
[1] = Pharmacokinetic assay in Balb/c mice (plasma and brain tissue); assay type: in vivo; settings: mouse, po, 5 mg/kg p.o., male Balb/c mice; for AUC(0-t): read-out: Area under curve AUC0-t; for AUC(0-inf): read-out: Area under curve AUC0-∞; for half-life: read-out: Half-life t1/2 (converted); for MRT: read-out: Mean residence time MRT; for Tmax: read-out: Peak time tmax; for Cmax: read-out: Plasma concentration Cmax
In short: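 Compound levels in plasma and brain were measured by LC/MS/MS with an internal standard after protein precipitation with acetonitrile. Samples came from overnight-fasted male Balb/c mice given 5 mg/kg p.o., with cardiac blood drawn at 0–24 h. Pharmacokinetic parameters were then calculated.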

forced-swimming mice = experiment: In vivo pharmacodynamic test in the forced swimming model in mice; settings: ICR mice; for Mean (immobility, %): dose 10 mpk p.o., 100*floating time/240 s; for Immobility time during the latter four minutes compared with that of the model group: forced swimming
Protocol: The antidepressant effect of the compound was evaluated by the forced swimming model in mice.
Male ICR mice (25-35 g) were adapted in the test environment for 3 days before the forced swimming test.
According to the test design, the mice were randomly grouped on the day before the test according to body weight, with 12 mice in each group. Before the test, the compounds of each example were administered intragastrically according to the Tmax thereof in the brain in mice pharmacokinetic test as follows: • 1) Model group (0.5% CMC-Na-1% Tween 80 solution, p.o., 10 mL/kg); • 2) Compounds of Example 2, Example 3, Example 5, Example 6, Example 9, Examples 59-63, Examples 71-73, Example 103, Example 135, Example 137, Example 145 and Example 146 (10 mg/kg, p.o., 10 mL/kg); Example 13 and Example 74 (5 mg/kg, p.o., 5 mL/kg).
When being administered, the compounds of each example were suspended in 0.5% CMC-Na+1% Tween 80 solution to the desired concentration.
0.5-1 hour after administration, ICR mice were placed in a forced swimming device (transparent glass drum (water depth 18 cm, water temperature 25-26° C.), one mouse per tank) and forced to swim for 6 minutes. The forced swimming device recorded the floating time of the ICR mice during the entire 6 minutes, and the data of the latter four minutes were used for data analysis. The mice were taken out immediately after the swimming test, wiped dry and put back in their original cages.
Note: The criterion for determining the immobility time is that the mouse stops struggling in water and floats, and there are only slight limb movements to keep the head floating on the water.
3.4 Data Analysis Floating time percentage=100*floating time/240 s.

Row | SMILES | AUC(0-t) ([1]; brain tissue) | AUC(0-inf) ([1]; brain tissue) | half-life ([1]; brain tissue) | MRT ([1]; brain tissue) | Tmax ([1]; brain tissue) | Cmax ([1]; brain tissue) | AUC(0-t) ([1]; plasma) | AUC(0-inf) ([1]; plasma) | half-life ([1]; plasma) | MRT ([1]; plasma) | Tmax ([1]; plasma) | Cmax ([1]; plasma) | Mean (immobility, %) (forced-swimming mice) | Immobility time during the latter four minutes compared with that of the model group (forced-swimming mice)
1 | C[C@@]1(O)CC[C@H]2[C@H](CC[C@@H]3[C@@H]2CC[C@@]2(C)[C@H]3[C@H](C3CC3)C[C@@H]2C(=O)Cn2ccc(C#N)n2)C1 [Example 72, 1-(2-((3R,5R,8R,9R,10S,13S,14S,15S,17S)-15-Cyclopropyl-3-hydroxy-3,13-dimethylhexadecahydro-1H-cyclopenta[a]phenanthren-17-yl)-2-oxoethyl)-1H-pyrazole-3-carbonitrile] | 2050 ng·h/mL | 2240 ng·h/mL | 2.12 h | 3.17 h | 0.5 h | 724 ng/mL | 2970 ng·h/mL | 2970 ng·h/mL | 2.79 h | 3.71 h | 0.5 h | 1150 ng/mL | 35.74% | significantly different
2 | C[C@@]1(O)CC[C@H]2[C@H](CC[C@@H]3[C@@H]2CC[C@@]2(C)[C@H]3[C@H](C3CC3)C[C@@H]2C(=O)Cn2nccn2)C1 [Example 73, 1-((3R,5R,8R,9R,10S,13S,14S,15S,17S)-15-Cyclopropyl-3-hydroxy-3,13-dimethylhexadecahydro-1H-cyclopenta[a]phenanthren-17-yl)-2-(2H-1,2,3-triazol-2-yl)ethan-1-one] | 1100 ng·h/mL | 1120 ng·h/mL | 1.31 h | 1.91 h | 0.5 h | 636 ng/mL | 2430 ng·h/mL | 2480 ng·h/mL | 1.4 h | 2.06 h | 0.5 h | 1300 ng/mL | 29.57% | significantly different
